{"source": "patent US7968606B2", "about": "(Takasago International Corporation, priority 2004, dated 2011)", "tested_on": "Japanese women", "test": "Contingent negative variation (CNV) amplitude measurement, method of Torii", "assay_type": "in vivo, human", "details": "used in perfume compositions in an amount of less than 0.5% by weight, preferably 0.01% to 0.4% by weight", "text": "(CNV) according to the method of Torii [Proceedings of the 19th Japanese Symposium on Taste and Smell, 65 (1985)], which is also described in detail in U.S. Pat. No. 6,268,333.\nThe contingent negative variations are small variations in cerebral potential related to psychological processes, such as attention, waiting, anticipation etc. as well as being related to changes in the state of consciousness.\nAccording to this method, a luminous signal is emitted approximately 2 seconds after the audible signal, and the subject must switch off the luminous signal by pressing on the button as soon as the luminous signal is recognised.\nWhen carrying out these experiments, a sample to be tested (perfume composition) or a reference sample (with no smell) is placed around 10 centimeters from the nose of the subject taking part in these experiments in such a way as to ensure that the compound is recognised at all times via the said subject's respiration. […]\nThe contingent negative variations measured during an early period of time going from 400 msec to 1000 msec after the audible signal and the amplitude of these variations is expressed with respect to a reference sample to which a value of 100% is given. […]\nThe amplitude of the contingent negative variations was determined for each woman taking part in the test during the early period going from 400 msec to 1000 msec after the audible signal.", "data": [{"smiles": "COc1cc(OC)cc(OC)c1", "note": "[1,3,5-trimethoxybenzene]", "values": [{"measurement": "sedative effect by measurement of contingent negative variations", "result": "sedative effect"}]}]}
